From PubChem BioAssay AID1963871 (Molecular Pharmacology Branch, DTP, NCI, 2024)

Test system: KRAS-mutant PDC multicell tumor spheroid viability
Test: Anticancer human tumor 521955-158-R2-J5-PDC patient-derived pancreatic carcinoma cell line growth inhibition [KRAS2]
Conditions: for IC50: curve of first compound; for viability, T/C: stronger effect = lower value
Procedure, shortened: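 Combination screen of spheroid viability in tumor-cell co-cultures with endothelial (HUVEC) and mesenchymal stem cell stroma. Each agent was tested in half-log dilutions, topping at clinical Cmax or at 10 microM without a known Cmax.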

[1] = second compound 0.1 µM, first compound 0.000316 µM
[2] = second compound 0.1 µM, first compound 0.001 µM
[3] = second compound 0.1 µM, first compound 0.00316 µM
[4] = second compound 0.1 µM, first compound 0.01 µM
[5] = second compound 0.1 µM, first compound 0.0316 µM
[6] = second compound 0.316 µM, first compound 0.000316 µM
[7] = second compound 0.316 µM, first compound 0.001 µM
[8] = second compound 0.316 µM, first compound 0.00316 µM
[9] = second compound 0.316 µM, first compound 0.01 µM
[10] = second compound 0.316 µM, first compound 0.0316 µM
[11] = second compound 1 µM, first compound 0.000316 µM
[12] = second compound 1 µM, first compound 0.001 µM
[13] = second compound 1 µM, first compound 0.00316 µM
[14] = second compound 1 µM, first compound 0.01 µM
[15] = second compound 1 µM, first compound 0.0316 µM
[16] = second compound 3.16 µM, first compound 0.000316 µM
[17] = second compound 3.16 µM, first compound 0.001 µM
[18] = second compound 3.16 µM, first compound 0.00316 µM
[19] = second compound 3.16 µM, first compound 0.01 µM
[20] = second compound 3.16 µM, first compound 0.0316 µM
[21] = second compound 10 µM, first compound 0.000316 µM
[22] = second compound 10 µM, first compound 0.001 µM
[23] = second compound 10 µM, first compound 0.00316 µM
[24] = second compound 10 µM, first compound 0.01 µM
[25] = second compound 10 µM, first compound 0.0316 µM
[26] = second compound 0.1 µM, first compound 0.1 µM
[27] = second compound 0.316 µM, first compound 0.1 µM
[28] = second compound 1 µM, first compound 0.1 µM
[29] = second compound 3.16 µM, first compound 0.1 µM
[30] = second compound 10 µM, first compound 0.1 µM
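Note: viability read after seven days of drug exposure.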

| SMILES | IC50 (second compound 0.1 µM) | IC50 (second compound 0.316 µM) | IC50 (second compound 1 µM) | IC50 (second compound 3.16 µM) | IC50 (second compound 10 µM) | viability, T/C [1] | viability, T/C [2] | viability, T/C [3] | viability, T/C [4] | viability, T/C [5] | viability, T/C [6] | viability, T/C [7] | viability, T/C [9] | viability, T/C [10] | viability, T/C [14] | viability, T/C [15] | viability, T/C [19] | viability, T/C [20] | viability, T/C [24] | viability, T/C [25] | further results |
| --- | --- | --- | --- | --- | --- | --- | --- | --- | --- | --- | --- | --- | --- | --- | --- | --- | --- | --- | --- | --- | --- |
| CC(=O)Nc1cccc(-n2c(=O)n(C3CC3)c(=O)c3c(Nc4ccc(I)cc4F)n(C)c(=O)c(C)c32)c1 + CNCc1ccccc1-c1csc(C(C)Nc2nc(C)nc3cc(OC)c(OC)cc23)c1 | 0.252 nM | 0.285 nM | 0.312 nM | < 0.1 nM | < 0.1 nM | 44.9% | 28.5% | 27.1% | 20.9% | 15.9% | 43.6% | 38% | 22.2% | 14.1% | 7.75% | 2.12% | 0.95% | 0.19% | 2.28% | 0.26% | viability, T/C (second compound 0.1 µM, first compound 0.0001 µM): 70.5%; viability, T/C (second compound 0.316 µM, first compound 0.0001 µM): 69%; viability, T/C [8]: 26.3%; viability, T/C (second compound 1 µM, first compound 0.0001 µM): 81.5%; viability, T/C [11]: 39.6%; viability, T/C [12]: 35.7%; viability, T/C [13]: 24.5%; viability, T/C (second compound 3.16 µM, first compound 0.0001 µM): 1.11%; viability, T/C [16]: 0.2%; viability, T/C [17]: 1.26%; viability, T/C [18]: 0.11%; viability, T/C (second compound 10 µM, first compound 0.0001 µM): 0.21%; viability, T/C [21]: 0.24%; viability, T/C [22]: 0.18%; viability, T/C [23]: 0.4% |
| CC(=O)OC12COC1CC(O)C1(C)C(=O)C(O)C3=C(C)C(OC(=O)C(O)C(NC(=O)OC(C)(C)C)c4ccccc4)CC(O)(C(OC(=O)c4ccccc4)C21)C3(C)C (stereo not given) + CNCc1ccccc1-c1csc(C(C)Nc2nc(C)nc3cc(OC)c(OC)cc23)c1 | < 10 nM | < 10 nM | < 10 nM | < 10 nM | < 10 nM | – | – | – | 28.2% | 16.2% | – | – | 20.4% | 16.6% | 23% | 13.2% | 0.16% | 13.9% | 0.17% | 0.14% | viability, T/C [26]: 15.3%; viability, T/C (second compound 0.1 µM, first compound 0.316 µM): 14.8%; viability, T/C (second compound 0.1 µM, first compound 1 µM): 16.6%; viability, T/C (second compound 0.1 µM, first compound 3.16 µM): 20.3%; viability, T/C [27]: 16.7%; viability, T/C (second compound 0.316 µM, first compound 0.316 µM): 15.8%; viability, T/C (second compound 0.316 µM, first compound 1 µM): 19.6%; viability, T/C (second compound 0.316 µM, first compound 3.16 µM): 23.6%; viability, T/C [28]: 13.2%; viability, T/C (second compound 1 µM, first compound 0.316 µM): 13.2%; viability, T/C (second compound 1 µM, first compound 1 µM): 19.9%; viability, T/C (second compound 1 µM, first compound 3.16 µM): 20%; viability, T/C [29]: 0.05%; viability, T/C (second compound 3.16 µM, first compound 0.316 µM): 0.05%; viability, T/C (second compound 3.16 µM, first compound 1 µM): 0.1%; viability, T/C (second compound 3.16 µM, first compound 3.16 µM): 17%; viability, T/C [30]: 0.11%; viability, T/C (second compound 10 µM, first compound 0.316 µM): 0.11%; viability, T/C (second compound 10 µM, first compound 1 µM): 0.12%; viability, T/C (second compound 10 µM, first compound 3.16 µM): 0.34% |
| CN(C)C/C=C/C(=O)Nc1cc2c(Nc3ccc(F)c(Cl)c3)ncnc2cc1O[C@H]1CCOC1 + CNCc1ccccc1-c1csc(C(C)Nc2nc(C)nc3cc(OC)c(OC)cc23)c1 | > 100 nM | > 100 nM | > 100 nM | 2.23 nM | < 0.316 nM | 107% | 104% | 93.3% | 91% | 88.9% | 110% | 93.5% | 92.6% | 98.5% | 100% | 97% | 0.26% | 85.9% | 0.16% | 0.23% | viability, T/C [26]: 77.3%; viability, T/C [8]: 81.1%; viability, T/C [27]: 64.4%; viability, T/C [11]: 113%; viability, T/C [12]: 120%; viability, T/C [13]: 100%; viability, T/C [28]: 97.7%; viability, T/C [16]: 114%; viability, T/C [17]: 116%; viability, T/C [18]: 0.23%; viability, T/C [29]: 1%; viability, T/C [21]: 0.27%; viability, T/C [22]: 0.27%; viability, T/C [23]: 0.18%; viability, T/C [30]: 0.24% |
